In patent US12115222B2, “Compositions and methods for improving the solubility of erectile dysfunction therapeutics” (Villya LLC, priority 2023, dated 2024):
Where “and” joins values, the source holds several entries; their conditions need not be identical. Identical values can stand only once. Like-named read-outs stand apart in the source and are kept apart here.

Assays:
[1] = system: S. mansoni newly transformed schistosomula (NTS)
[2] = Excerpt: After solubilizing the sugar and the compound in ethanol or aqueous ethanol, the ethanol is evaporated for example under a high rotary vacuum. The powder resulting from the evaporation step is then resolubilized (dissolved) in water. Another solvent can be methanol at 80% methanol, 95% (ACS grade) or greater (to 100% methanol) as well as combinations of methanol and ethanol or methanol and water. After solubilizing the sugar and the compound in ethanol or aqueous ethanol, the ethanol is evaporated for example under a high rotary vacuum. The powder resulting from the evaporation step is then resolubilized (dissolved) in water.
Generally, ingredients are deposited into a sealed container with ethanol and vortex-mixed to form a solution. The solution is subjected to centrifugation. The ethanol is evaporated off and the dried mixture was dissolved in water. This mixture is centrifuged again and the supernatant is filtered through a membrane. […] In one embodiment, the admixing process involves dissolving the PSD and sugar in the ethanol while stirring and adjusting the pH as necessary to obtain complete dissolution and a clear reaction mixture. The reaction mixture can then be dried to remove the ethanol. No further water washing or filtering is needed.
In this example, an oven-dried single-neck RB flask equipped with a magnetic stir bar was used. […] The reaction mixture was vigorously stirred at room temperature for 30 min at 20° C. […] The white solid was dried using vacuum drying performed at room temperature and a high vacuum pump for about one hour to remove the ethanol (EtOH) completely using an Edvards Model #RV8 […], a Heidolph type Basis Hei-VAP Value, No. 560-00000-0101. The high vacuum pump was connected to a cooling trap and the trap was connected to the RB flask. Vacuum strength was about 1 mm Hg.
The white foamy solid was dried over a high vacuum at room temperature for an additional hour to remove the water completely, by ascertaining changes in weight loss. Drying continued until further weight loss was not observed.
Step 1: In an oven-dried single neck RB flask equipped with magnetic stir and septa (flask cap), 5 mg sildenafil (0.01054 mmol) and 16.95 mg stevioside (1:2 molar ratio) were weighed into the RB flask and dissolved in 85% ethanol (˜2.0 mL, denatured 85% ethanol) at ambient temperature. The reaction mixture was vigorously stirred at room temperature for 30 min. […] The white solid was dried over a high vacuum for an hour to remove the ethanol completely (no further reduction in weight was observed).
Step 2: The obtained white solid was then dissolved in 2.0 mL water at room temperature in an RB flask with a magnetic stir bar. The reaction mixture was stirred at ambient temperature for 30 min. […] The white foamy solid was dried over a high vacuum at room temperature for an additional hour to remove the water completely. The weight of the flask was checked while drying until no further weight loss was observed.

[3] = drug alone; cited from earlier work
[4] = Stability of the dissolved complex on standing (precipitate); assay type: physicochemical
Procedure: […] […] The clear solution was then dried as described in Step 2 in Example 8. The 10 mg dried solid was then dissolved in 0.6 mL D20.
For NMR, 10 mg of the solid sample obtained was dissolved in 0.6 mL D20. The dissolved 10 mg sample again produced a clear and homogeneous solution. […] The complex in D20 remained stable for 9 days without any observable precipitate forming.

[5] = Non-caloric sugar solubility in water and 95% ethanol
Procedure: In this experiment, the following sugars were compared for solubility: rubusoside, dulcoside A, rebaudioside B, dulcoside B, and rebaudioside D. Approximately 5.0 mg of each sugar was attempted to be dissolved in 0.6 mL water and vortexed for 2 minutes at room temperature.
In another experiment, 50 mg stevia was dissolved in either 2.0 mL water or 2.0 mL 95% ethanol.

[6] = cited from earlier work
[7] = approximately 5.0 mg in 0.6 mL water, vortexed 2 minutes, room temperature

O=C(C1CCCCC1)N1CC(=O)N2CCc3ccccc3C2C1 (stereo not shown) [Praziquantel]
24 hr Exposure LD50 ([1]; 24 hr exposure): 33.5 ± 5.71 µM | 72 hr exposure LD50 ([1]; 72 hr exposure (table)): 24.3 ± 0.67 µM | LD50 ([1]; exposure after 72 hours): 33.9 ± 0.64 µM | solubility by 1H-NMR [2]: 0.65 | solubility by 1H-NMR analysis [2]: 0.89 | solubility for the drug by 1H-NMR analysis [2]: 1.73 | solubility in 95% ethanol with Dulcoside A [2]: insoluble | solubility in 95% ethanol with rebaudioside B [2]: insoluble | solubility in 95% ethanol with rebaudioside D [2]: insoluble | solubility in water by NMR [2]: only partial solubility | solubility in water in complex with dulcoside B [2]: well soluble | solubility in water with D-fructose (NMR) [2]: did not make praziquantel soluble or more soluble | solubility in water with rebaudioside D [2]: insoluble | Solubility of Praziquantel In Ethanol (95%), without sugar [3]: 9.7 g/100 mL | Solubility of Praziquantel In Water, without sugar [3]: 0.04 g/100 mL | time until the water solution became white and turbid ([4]; Example 16, praziquantel:rubusoside 1:2 molar, 0.1 N HCl, pH ~4.7): 15 min

CCCc1nn(C)c2c(=O)[nH]c(-c3cc(S(=O)(=O)N4CCN(C)CC4)ccc3OCC)nc12 [Sildenafil, 5-[2-ethoxy-5-(4-methylpiperazin-1-yl)sulfonylphenyl]-1-methyl-3-propyl-6H-pyrazolo[4,3-d]pyrimidin-7-one]
solubility in water by 1H-NMR [2]: 100% | solubility in water by NMR ([2]; 30 min): 100% | time remained in solution in D2O ([4]; Example 14, 1:3 molar with citric acid): 3 days

C=C1C[C@@]23CC[C@H]4[C@@](C)(CCC[C@@]4(C)C(=O)O[C@@H]4O[C@H](CO)[C@@H](O)[C@H](O)[C@H]4O)[C@@H]2CC[C@]1(O[C@@H]1O[C@H](CO)[C@@H](O)[C@H](O[C@@H]2O[C@H](CO)[C@@H](O)[C@H](O)[C@H]2O)[C@H]1O[C@@H]1O[C@H](CO)[C@@H](O)[C@H](O)[C@H]1O)C3 [rebaudioside A]
solubility of the sugar in 95% ethanol (observation) ([5]; 50 mg in 2.0 mL 95% ethanol): either insoluble or partially soluble | solubility of the sugar in water (observation) ([5]; 50 mg in 2.0 mL water): soluble | Sugar Solubility in 95% EtOH [6]: Poorly soluble | Sugar Solubility in Water [6]: Poorly soluble

C=C1C[C@@]23CC[C@H]4[C@@](C)(CCC[C@@]4(C)C(=O)O[C@@H]4O[C@H](CO)[C@@H](O)[C@H](O)[C@H]4O[C@@H]4O[C@H](CO)[C@@H](O)[C@H](O)[C@H]4O)[C@@H]2CC[C@]1(O[C@@H]1O[C@H](CO)[C@@H](O)[C@H](O[C@@H]2O[C@H](CO)[C@@H](O)[C@H](O)[C@H]2O)[C@H]1O[C@@H]1O[C@H](CO)[C@@H](O)[C@H](O)[C@H]1O)C3 [rebaudioside D]
solubility of the sugar in water (observation) [5, 7]: partially soluble | Sugar Solubility in 95% EtOH [6]: Insoluble | Sugar Solubility in Water [6]: 100 mg/ml and 88.56 mM

OC[C@H]1O[C@H](O[C@]2(CCl)O[C@H](CCl)[C@@H](O)[C@@H]2O)[C@H](O)[C@@H](O)[C@H]1Cl [sucralose, 1,6-dichloro-1,6-dideoxy-β-D-fructofuranosyl-4-chloro-4-deoxy-α-D-galactopyranoside]
solubility of the sugar in 95% ethanol (observation) ([5]; 50 mg in 2.0 mL 95% ethanol): slowly soluble | time to dissolve in 95% ethanol ([5]; 50 mg in 2.0 mL 95% ethanol, room temperature): 2 h | solubility of the sugar in water (observation) ([5]; 50 mg in 2.0 mL water): soluble | Sugar Solubility in 95% EtOH ([6]; at 20° C.): 283 g/L at 20 °C | Sugar Solubility in Water ([6]; at 20° C.): 110 g/L at 20 °C

dulcoside A
solubility of the sugar in water (observation) [5, 7]: partially soluble | Sugar Solubility in 95% EtOH [6]: Partly soluble | Sugar Solubility in Water [6]: 2.28 g/L

rebaudioside B
solubility of the sugar in water (observation) [5, 7]: insoluble in water or poorly soluble | Sugar Solubility in 95% EtOH [6]: Poorly soluble | Sugar Solubility in Water [6]: Poorly soluble
